Read-outs that look alike come from different tables or passages of the source.
Tests used:
Assay type in all cases: cell-based
[1] = test system: Immortalized human astrocytes; assay: MTT cell viability assay, astrocytes (non-cancer control); details: for IC50: immortalized human astrocytes, MTT after three days
Protocol: (§1) Different concentration of compounds were added to the cells. Three days later, a MTT assay (Sigma) was performed to monitor cell viability.
(§2) In this example, samples of glioblastoma cells (U87) and astrocyte cells (non-cancer control) were exposed various disclosed compounds to determine the effectiveness of the compounds for inhibiting cell growth.

[2] = test system: Glioblastoma cell line U87 cells; assay: MTT cell viability assay, glioblastoma cells; details: for IC50: Homo sapiens, U-87 MG, 72 h, U87 glioblastoma cells, MTT after three days
Protocol: as §1, §2

[3] = molecular target: T1, AVIL protein binding to actin (Homo sapiens, UniProt O75366); assay: Immunoprecipitation (MYC antibody) and Western blot (β-actin antibody) in 293T cells transfected with MYC tagged AVIL; details: IC50 dose, 24 hrs, FIGS. 2A and 2B
T1 construct: expressed in transfected cells; host or cells: 293T cells
T1 sequence (O75366 1-819): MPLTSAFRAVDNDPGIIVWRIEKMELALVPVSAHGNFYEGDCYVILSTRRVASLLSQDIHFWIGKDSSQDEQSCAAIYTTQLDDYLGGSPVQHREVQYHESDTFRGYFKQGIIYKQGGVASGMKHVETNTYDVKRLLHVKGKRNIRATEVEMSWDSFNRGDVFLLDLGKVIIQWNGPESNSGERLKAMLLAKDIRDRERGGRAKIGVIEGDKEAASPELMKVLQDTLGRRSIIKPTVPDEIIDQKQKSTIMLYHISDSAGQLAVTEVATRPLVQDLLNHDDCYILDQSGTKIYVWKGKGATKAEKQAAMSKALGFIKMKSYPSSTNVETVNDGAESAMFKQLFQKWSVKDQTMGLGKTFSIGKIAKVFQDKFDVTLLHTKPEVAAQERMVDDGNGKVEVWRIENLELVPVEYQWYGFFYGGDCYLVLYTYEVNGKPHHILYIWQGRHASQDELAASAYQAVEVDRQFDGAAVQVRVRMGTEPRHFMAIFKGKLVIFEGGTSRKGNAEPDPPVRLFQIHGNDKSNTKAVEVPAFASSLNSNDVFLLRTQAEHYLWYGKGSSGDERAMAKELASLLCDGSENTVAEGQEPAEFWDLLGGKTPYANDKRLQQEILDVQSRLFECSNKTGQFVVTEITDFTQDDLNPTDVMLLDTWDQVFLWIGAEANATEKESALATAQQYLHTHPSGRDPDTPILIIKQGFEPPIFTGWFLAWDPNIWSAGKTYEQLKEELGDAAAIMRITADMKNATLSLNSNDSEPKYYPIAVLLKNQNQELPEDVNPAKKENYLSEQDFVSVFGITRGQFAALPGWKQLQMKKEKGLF
Protocol: 293T cells were first transfected with MYC tagged AVIL. After 24 hrs, the cells were treated with the IC50 dose of the five compounds for 24 hrs. Immunoprecipitation was performed with MYC antibody, and Western blot was performed with β-actin antibody.
293T cells were first transfected with MYC tagged AVIL as follows: transfect pQCXIH-myc-AVIL plasmid in 6 well plate of 293T for 48 hrs. 200 ul opti-medium+7 ul GeneCellin (Polyplus transfection Co.)+4 ug plasmids in each well. Transfected AVIL cells were treated with the IC50 dose of the test compounds for 24 hrs. Protein extract was then prepared on ice by adding 1 ml IP lysis buffer+protease inhibitor+cocktail+PMSF, and let stand on ice for 30 min. Cells were then scraped into EP tubes and sonicated continuously for 5 sec with power setting 3. Tubes were then centrifuged in 4° C. at 13000 rpm for 20 min, and the upper aqueous phase was then transferred to pre-chilled tubes. Protein concentration was then determined using Bio-Rad protein assay. Preclear cell extracts were treated with 50 ul ProteinG/Sepharose per my lysate for 1 hr. Then 500 ug precleared cell extracts were taken and adjusted to 500 ul with lysis buffer for 2 ug myc antibody or IgG control and incubated at 4° C. overnight. Then, 25 ul ProteinG/Sepharose beads were added and incubated at 4° C. overnight. Beads were then washed four times with 1 ml IP wash buffer for 3 min, and spun at 1000 rpm to pellet beads. All wash buffer was removed with pipette, and 20 ul 2×SDS loading buffer was added and then boiled at 95° C. for 10 min to denature. This was centrifuged at 12000 rpm for 30 sec., and the supernatant was then transferred to a fresh tube and load for SDS-PAGE.
Western blot was performed with R-actin antibody. To measure protein levels, cell lysates were resolved by denaturing gel electrophoresis, before electrotransfer to a Protran nitrocellulose membrane. The membrane was subjected to western blot analysis with antibodies against the proteins of interest. The following antibodies and dilutions were used: rabbit anti-AVIL (1:2000; Sigma SAB2100191).

LIN28B = LIN28B gene expression by qRT-PCR in U87 cells; details: IC50 concentration, relative to GAPDH, FIG. 3
Protocol: U87 cells were treated at the IC50 concentration of the five test compounds. Cells were harvested. RNA was extracted using TRIzol reagent (Invitrogen) and quantified with Nanodrop (Thermo). cDNA was generated by AMV-RT kit (NEB), and a random hexamer primer. Real-time qPCR was carried out on the StepOne Plus system from Applied Biosystems using SYBR mix (Thermo). LIN28B expression was measured by qRT-PCR and is represented relative to GAPDH levels. […] The following primers were used for […] and GAPDH amplifications: […]

SMILES	IC50 [2]	IC50 ([2]; value in nM)	IC50 ([1]; Homo sapiens, Astrocyte, 72 h)	IC50 ([1]; read-out: IC50 (astrocyte))	disruption of AVIL protein binding to actin [3]	down-regulation of LIN28B gene expression (LIN28B)	effect on astrocytes ([1]; FIG. 1 cell survival curves, astrocytes, varied doses)	concentration at which most if not all of the U87 cells were wiped out ([2]; FIG. 1 cell survival curves, U87)
c1ccc(COCC2CCCN(c3ncnc4ccccc34)C2)cc1 (centres unmarked) [PLH2069, 4-(3-((Benzyloxy)methyl)piperidin-1-yl)quinazoline]	–	–	–	–	disruption of AVIL protein binding to actin	down-regulation of LIN28B gene expression	–	–
Nc1nccc(N2CCCCC2)n1 [JDDUVA12, 4-(Piperidin-1-yl)pyrimidin-2-amine]	> 80000 nM	–	> 80 µM	–	–	–	–	–
CC1CCN(c2ccnc(N)n2)CC1 [JDDUVA59, 4-(4-Methylpiperidin-1-yl)pyrimidin-2-amine]	72000 nM	–	> 80 µM	–	–	–	–	–
Nc1nc(N)nc(N2CCC(CO)(CCCc3ccccc3)CC2)n1 [JDDUVA78, (1-(4,6-Diamino-1,3,5-triazin-2-yl)-4-(3-phenylpropyl)piperidin-4-yl)methanol]	12000 nM	–	~40 µM	–	–	–	–	–
Nc1cncc(N2CCC(CO)(CCCc3ccccc3)CC2)n1 [JDDUVA55]	16000 nM	–	> 80 µM	–	–	–	–	–

The next lines start with results.

IC50 [2]	IC50 ([2]; value in nM)	SMILES	IC50 ([1]; Homo sapiens, Astrocyte, 72 h)	IC50 ([1]; read-out: IC50 (astrocyte))	disruption of AVIL protein binding to actin [3]	down-regulation of LIN28B gene expression (LIN28B)	effect on astrocytes ([1]; FIG. 1 cell survival curves, astrocytes, varied doses)	concentration at which most if not all of the U87 cells were wiped out ([2]; FIG. 1 cell survival curves, U87)
< 1000 nM	500 nM	OCC1(CCCc2ccccc2)CCCN(c2ncnc3ccccc23)C1 (centres unmarked) [PLH1295, (3-(3-Phenylpropyl)-1-(quinazolin-4-yl)piperidin-3-yl)methanol]	22 µM	30 µM	disruption of AVIL protein binding to actin	down-regulation of LIN28B gene expression	–	–
~1000 nM	~600 nM	Cc1nc(N)nc(N2CCCC(CO)(CCCc3ccccc3)C2)c1C (centres unmarked) [PLH1252, (1-(2-Amino-5,6-dimethylpyrimidin-4-yl)-3-(3-phenylpropyl)piperidin-3-yl)methanol]	45 µM	~80 µM	disruption of AVIL protein binding to actin	down-regulation of LIN28B gene expression	no significant effect	less than 1 μM
8000 nM	–	Cc1c(Cl)ncnc1N1CCCC(CO)(CCCc2ccccc2)C1 (centres unmarked) [PLH1279, (1-(6-Chloro-5-methylpyrimidin-4-yl)-3-(3-phenylpropyl)piperidin-3-yl)methanol]	> 80 µM	–	–	–	–	–
2800 nM	–	Nc1nccc(N2CCC[C@@H](COCc3ccccc3)C2)n1 [PLH2040, (R)-4-(3-((Benzyloxy)methyl)piperidin-1-yl)pyrimidin-2-amine]	> 80 µM	–	–	–	–	–
> 80000 nM	–	Nc1nccc(N2CCCC(C(=O)NCc3ccccc3)C2)n1 (centres unmarked) [PLH1290, 1-(2-Aminopyrimidin-4-yl)-N-benzylpiperidine-3-carboxamide]	> 80 µM	–	–	–	–	–
3830 nM	–	Nc1nccc(N2CCCC(CO)(CCc3ccccc3)C2)n1 (centres unmarked) [PLH1304, (1-(2-Aminopyrimidin-4-yl)-3-phenethylpiperidin-3-yl)methanol]	~80 µM	–	–	–	–	–
< 2500 nM	–	Cc1ncnc(N2CCCC(CO)(CCCc3ccccc3)C2)c1C (centres unmarked) [PLH2056, (1-(5,6-Dimethylpyrimidin-4-yl)-3-(3-phenylpropyl)piperidin-3-yl)methanol]	~80 µM	–	disruption of AVIL protein binding to actin	down-regulation of LIN28B gene expression	–	–
~50000 nM	–	Nc1nccc(N2CCCC(COCc3ccccc3)C2)n1 (centres unmarked) [PLH2027, 4-(3-((Benzyloxy)methyl)piperidin-1-yl)pyrimidin-2-amine]	~80 µM	–	–	–	–	–

Reference: US20220213055A1, “SUBSTITUTED (PIPERIDIN-1-YL)ARYL ANALOGUES FOR MODULATING AVIL ACTIVITY” (University of Virginia Patent Foundation, priority 2019, published 2022)
